“And” between values parts separate entries of the source, which are not always exact repeats. Equal values may be shown once.
Legend:
[1] = Measured pKa of cationic lipids in LNP or micellar formulations by TNS fluorescence; assay type: physicochemical; details: for pKa / (pKa) measured pKa: measured in the Formulation milieu, TNS fluorescence, 1 mM total lipids
Description: pKa of cationic lipids in LNP or micellar Formulations were measured by the procedure of Jayaraman, 2012, Angew. Chem. Int. Ed., 51:8529-33, hereby incorporated by reference. Lipid micelles or LNPs are diluted to 1 mM total lipids in universal buffer with a pH range between 3 and 12 in presence of 0.06 mg/mL 6-(p-toluidino)-2-naphthalenesulfonic acid sodium salt (TNS) reagent (Sigma Aldrich), a pH sensitive fluorescence probe. The anionic TNS molecule fluoresces when associated with the surface of positively charged membranes but is not fluorescent when free in solution, allowing measurement of pKa. The TNS signal is measured on a spectral plate reader. The TNS signal is plotted as function of the pH and analyzed using a non-linear (Boltzman) to determine the pKa.
Reagents used in the assay include • Hepes free acid, CAS: 7365-45-9 (VWR, 0511-1KG or equivalent) • MES, HPLC grade: (Sigma 105228-100G or equivalent) • Ammonium acetate, HPLC grade: (Sigma 90335-100 mL or equivalent) • Sodium chloride, HPLC grade (VWR EM-MX0475-1 or equivalent) • TNS (Sigma-Aldrich T9792-250 mg or equivalent) • Hydrochloric acid • DMSO • DPBS without calcium and magnesium (GE, SH30028.02 or equivalent) • H2O, HPLC grade (OmniSolv, WX0004-1 or equivalent)
To prepare a stock solution of Universal Buffer (UB) in a polystyrene sterile storage bottle, prepare 1 L using the following table.
Reagents are sterile filtered through a 0.2 μm filter. Preparation of UB solution includes adding 5 mL of 1 M HCl to a 350 mL stock solution.
To prepare a pH ladder, centrifuge tubes (50 mL) with 20 mL UB buffer are used. (pH ˜3) and differing amounts of 2 N NaOH. Stock solutions of TNS at 1 mg/mL in DMSO. 60 μL of TNS at 1 mg/mL is added to 940 μL water to reach a working solution concentration of 0.06 mg/mL. Five test samples, 1 mL of LNP sample in PBS at 1 mM total lipid, and 1 reference sample are analyzed per plate. Samples at different pH values are prepared in wells in which 25 μL of 0.06 mg/mL TNS is added. 15 μL of test samples is added per well. The microplate is incubated for 15 minutes at room temperature in the dark. TNS template can be used to format data from the plate reader. Perform non-linear (Boltzman) regression analysis of the samples in Origin Pro 8 or equivalent software.

Factor VII = experiment: In vivo mouse Factor VII siRNA knockdown with lipid nanoparticles; set-up: species or system C57BL/6 mice; details: intravenous, 48 hours, mice; for Bioactivity: percentage in vivo Factor VII knockdown: dose 0.03 mg/kg
Source text: The first pair of numbers denotes the number of carbons in the ester, including the carbonyl, for L1 and L2; the pair of numbers in the parenthesis denotes the number of carbons in each branch of the branched alkyl, R1 or if R2 is also branched, R1/R2 (an asterisk denotes a double bond); the number of carbons in R3 is given; and the last line denotes the substitution for R4 and R5. The ATX number is given for reference herein. Calculated Log D values (c-Log D) and calculated pKa (c-pKa) values are given, as well as measured pKa in parenthesis (measured in the Formulation milieu). The c-Log D and c-pKa values are generated by ACD Labs Structure Designer v12.0. Bioactivity is percentage in vivo Factor VII knockdown at a dose of 0.03 mg/kg, unless otherwise designated.
Using a liver-directed in vivo screen of the liposome libraries, a series of compounds were tested that facilitate high levels of siRNA mediated gene silencing in hepatocytes, the cells comprising the liver parenchyma. Factor VII, a blood-clotting factor, is a suitable target gene for assaying functional siRNA delivery to liver. Because this factor is produced specifically in hepatocytes, gene silencing indicates successful delivery to parenchyma, as opposed to delivery to the cells of the reticulo-endothelial system (e.g., Kupffer cells). Furthermore, Factor VII is a secreted protein that can be readily measured in serum, obviating the need to euthanize animals. Silencing at the mRNA level can be readily determined by measuring levels of protein. This is because the protein's short half-life (2-5 hour). Compositions with siRNA directed to […] were Formulated with the lipid, and comparator sample phosphate-buffered saline (PBS). Female C57BL/6 mice (6-8 week old) were used for FVII siRNA knockdown (KD) experiments.
All Formulations were administered intravenously via tail vein injection at a dose of 0.03 and 0.1 mg/kg at a dosing volume of […]. Terminal blood collection was performed via cardiac puncture under 2% isoflurane at 48 hours after Formulation injections. Blood was collected into 0.109 M citrate buffer tube and processed by centrifugation at 1200 G for 10 min. Plasma was collected and Factor VII protein levels were analyzed by chromogenic assay (Biophen FVII, Aniara Corporation). A standard curve was constructed using samples from PBS-injected mice and relative Factor VII expression was determined by comparing treated groups to untreated PBS control.

mouse epo mRNA = experiment: In vivo EPO mRNA stability after injection of lipid encapsulated mouse epo mRNA; set-up: species or system Balb/c mice; details: 0.03 and 0.1 mg/kg intravenous, 6 hours after injection, mice
Description: Levels of mRNA in plasma were measured and compared following injection of nanoparticles comprising different cationic lipids. Female Balb/c mice (6-8 week old) were used for evaluation of plasma erythropoietin (epo) levels in vivo following injection of lipid encapsulated mouse epo mRNA. All Formulations were administered intravenously via tail vein injection at a dose of 0.03 and 0.1 mg/kg at a dosing volume of 5 ml/kg. Terminal blood collection was performed via cardiac puncture under 2% isoflurane at 6 hours after Formulation injections. Blood was collected into 0.109 M citrate buffer tube and processed by centrifugation at 5000 rpm for 10 minutes. Serum was collected and epo mRNA levels were analyzed. Results are shown at FIG. 17.

epo protein = experiment: In vivo epo protein expression after delivery of lipid encapsulated mouse epo mRNA (epo ELISA); set-up: species or system Balb/c mice; details: at 0.1 mg/kg, intravenous, 6 hours, mice
Description: Epo expression following delivery of mRNA using lipid nanoparticles comprising the lipids described herein was measured.
Female Balb/c mice (6-8 weeks old) were used for evaluation of epo protein expression in vivo following delivery of lipid encapsulated mouse epo mRNA. All formulations were administered intravenously via tail vein injection at a dose of 0.03 and 0.1 mg/kg at a dosing volume of 5 mL/kg. Terminal blood collection was performed via cardiac puncture under 2% isoflurane at 6 hours after Formulation injections. Blood was collected into 0.109 M citrate buffer tube and processed by centrifugation at 5000 rpm for 10 minutes. Serum was collected and epo protein levels were analyzed by epo ELISA assay (R&D systems). A standard curve was constructed using samples from PBS-injected mice and relative […] expression was determined by comparing treated groups to untreated PBS control.

Row | Compound | Δ measured pKa vs ATX-0002 ([1]; change on shortening the ester, vs ATX-0002) | pKa [1] | Factor VII knockdown activity compared with ATX-002 (FIG. 18) (Factor VII; both at 0.03 and 0.1 mg/kg) | Bioactivity: percentage in vivo Factor VII knockdown (Factor VII) [percentage] | epo mRNA levels in serum compared with ATX-0002 (FIG. 17) (mouse epo mRNA) | epo expression compared with ATX-002 (FIG. 19) (epo protein) | (pKa) measured pKa [1]
1 | CCCCCC/C=C\COC(=O)CCCN(CCCC(=O)OC(CCCCCCC)CCCCCCCC)C(=O)SCCN(C)C (stereo not shown) [ATX-0057] | no impact | 5.7 | substantially more effective than ATX-002 | 86 | substantial improvement over ATX-0002 | substantially higher amounts | 
2 | CCCCCC/C=C\COC(=O)CCCN(CCCC(=O)OC(CCCCCCC)CCCCCCC)C(=O)SCCN(C)C [ATX-0081] |  | 6.04 |  | 93 | substantial improvement over ATX-0002 |  | 
3 | CCCCCC/C=C\COC(=O)CCCCCN(CCC(=O)OC(CCCCCCC)CCCCCCC)C(=O)SCCN(C)C [ATX-0082] |  |  |  |  | substantial improvement over ATX-0002 |  | 
4 | CCCCCC/C=C\COC(=O)CCCCCN(CCCC(=O)OC(CCCCCCC)CCCCCCC)C(=O)SCCN(C)C [ATX-0083] |  | 5.98 |  | 65 | substantial improvement over ATX-0002 |  | 
5 | CCCCCC/C=C\COC(=O)CCCCCN(CCCCCC(=O)OC(CCCCCC)CCCCCC)C(=O)SCCN(C)C [ATX-0084] |  | 6.11 |  | 68 | substantial improvement over ATX-0002 |  | 
6 | CCCCCC/C=C\COC(=O)CCCN(CCCC(=O)OC(CCCCCC)CCCCCC)C(=O)SCCN(C)C [ATX-0086] |  | 6.05 |  | 13 | substantial improvement over ATX-0002 |  | 
7 | CCCCCC/C=C\COC(=O)CCCN(CCCC(=O)OC(CCCCCCCC)CCCCCCCC)C(=O)SCCN(C)C [ATX-0087] |  |  |  |  | substantial improvement over ATX-0002 |  | 
8 | CCCCCC/C=C\COC(=O)CCCCCCCN(CCCCCCCC(=O)OC(CCCCCC)CCCCCC)C(=O)SCCN(C)C [ATX-0093] |  | 5.79 |  | 70 |  |  | 
9 | CCCCCC/C=C\COC(=O)CCCCCCCN(CCCCCCCC(=O)OC(CCCCCCCC)CCCCCCCC)C(=O)SCCN(C)C [ATX-0096] |  | 5.59 |  | 40 |  |  | 
10 | CCCCCC/C=C\COC(=O)CCCCCCCN(CCCCCCCC(=O)OC(CCCCCCC)CCCCCCC)C(=O)SCCN(C)C [ATX-0097] |  | 5.89 |  | 71 |  |  | 
11 | CCCCCCCC(CCCCCCC)OC(=O)CN(CC(=O)OC(CCCCCCC)CCCCCCC)C(=O)SCCCN(CC)CC [ATX-0134] |  | 5.62 |  | 25 |  |  | 
12 | CCCCCC(CCCCC)OC(=O)CN(CC(=O)OC(CCCCC)CCCCC)C(=O)SCCCN(C)C [drawing 51] |  | 6.28 |  | 0 |  |  | 6.17
13 | CCCCCC(CCCCC)OC(=O)CN(CC(=O)OC(CCCCC)CCCCC)C(=O)SCCCN(C)C [drawing 52] |  |  |  | 0 |  |  | 6.28 and 6.17
14 | CCCCCC/C=C\COC(=O)CCCN(CCCC(=O)OC(CCCCCCCC)CCCCCCCC)C(=O)SCCN(C)C [drawing 76] |  | 6.06 |  | 80 |  |  | 
15 | CCCCCC/C=C\COC(=O)CCCCCN(CCC(=O)OC(CCCCCCC)CCCCCCC)C(=O)SCCN(C)C [drawing 82] |  | 5.77 |  | 43 |  |  | 
